Test [1] concerns the target T1, vasopressin (Homo sapiens, UniProt P01185).
T1 construct: Effect on Physiological Function of Vasopressin and Insulin as Peptides; purchased Sigma Co. Saint Louis, Mo., USA
Put plainly: Physiological function of vasopressin treated with Yoshixol, blood pressure. It is filed as in vivo. The following applies: rabbit, intravenous vasopressin 100 ng/Kg treated with Yoshixol 4 μl; untreated vasopressin 15-25 mmHg. The method, then: Each vasopressin and insulin has a physiological effect such as a rise of blood pressure and a fall of sugar level in blood respectively. An effect of Yoshixol on these physiological functions was investigated and compared by injection of each hormone without or with treatment with Yoshixol in rabbit in vivo. When vasopressin (100 ng/Kg, Sigma Co. Saint Louis, Mo., USA) without treatment with Yoshixol was injected intravenously, blood pressure increased by 15-25 mmHg so that this increased level was maintained for about 25 minutes. But, vasopressin (100 ng/Kg) treated with Yoshixol (4 μl) caused a increase in blood pressure of only about 5 mmHg (referred FIG. 6).

For test [2], the system named is methitilin resistance staphylococcus aureus, MRSA (stock no. SCK18). It is filed as cell-based. The following applies: for colony formation unit (CFU): 24-hour incubation at 37° C., initial 10^8, control 10^10.

Structures are written as SMILES. Like-named read-outs stand apart in the source and are kept apart here.

Take `C=C1CC(C)(C)C=CC1=O` [Yoshixol, 4,4-dimethyl-6-methylene-2-cyclohexen-1-one]: the “increase in blood pressure” value in test [1] was “about 5 mmHg”. In addition, the “colony formation unit (CFU)” value in test [2] (0.25 μl per 1 ml of culture medium) is given as 10^4 CFU; in test [2] (2 μl per 1 ml of culture medium) it was 10^2 CFU; in test [2] (10 μl per 1 ml of culture medium), “zero”. The “proliferation with evaporating component of Yoshixol” value in test [2] (50 μl in the whole space of the schale, indirect contact, 24 hours, 37° C.) is “did not occur”. For the same compound, in test [2] (after Yoshixol), the “histological aspect of cell death, scanning electron microscopy” value is reported as “separated to an individual bacterial cell”.
